Results reported in ChEMBL document CHEMBL3797108, “Design, synthesis and in vitro biological evaluation of a small cyclic peptide as inhibitor of vascular endothelial growth factor binding to neuropilin-1” (Bioorg Med Chem Lett, 2016).
Calls of active or inactive are those of the source. The rule behind the calls is not given here. Positions of bridges follow the written chain, without caps; N, C: chain ends. Residues, ends and D or L forms follow the SMILES beside them.

Experiments:
[1] = target: Neuropilin-1 (Rattus norvegicus) (UniProt Q9QWJ9); assay: Inhibition of (bt)-VEGF165 binding to purified recombinant rat NRP1/Fc chimera at 100 uM measured after overnight incubation by ELISA method
[2] = target: Neuropilin-1 (Rattus norvegicus) (UniProt Q9QWJ9); assay: Inhibition of (bt)-VEGF165 binding to purified recombinant rat NRP1/Fc chimera at 10 uM measured after overnight incubation by ELISA method
[3] = target: Neuropilin-1 (Rattus norvegicus) (UniProt Q9QWJ9); assay: Inhibition of (bt)-VEGF165 binding to purified recombinant rat NRP1/Fc chimera at 3 uM measured after overnight incubation by ELISA method
[4] = target: Neuropilin-1 (Rattus norvegicus) (UniProt Q9QWJ9); assay: Inhibition of (bt)-VEGF165 binding to purified recombinant rat NRP1/Fc chimera at 1 uM measured after overnight incubation by ELISA method
[5] = target: Neuropilin-1 (Rattus norvegicus) (UniProt Q9QWJ9); assay: Inhibition of (bt)-VEGF165 binding to purified recombinant rat NRP1/Fc chimera at 0.3 uM measured after overnight incubation by ELISA method
[6] = target: Neuropilin-1 (Rattus norvegicus) (UniProt Q9QWJ9); assay: Inhibition of (bt)-VEGF165 binding to purified recombinant rat NRP1/Fc chimera at 0.1 uM measured after overnight incubation by ELISA method
[7] = target: Neuropilin-1 (Rattus norvegicus) (UniProt Q9QWJ9); assay: Inhibition of (bt)-VEGF165 binding to purified recombinant rat NRP1/Fc chimera at 0.01 uM measured after overnight incubation by ELISA method
[8] = target: Neuropilin-1 (Rattus norvegicus) (UniProt Q9QWJ9); assay: (§1) Inhibition of (bt)-VEGF165 binding to purified recombinant rat NRP1/Fc chimera measured after overnight incubation by ELISA method
[9] = target: Neuropilin-1 (Rattus norvegicus, UniProt Q9QWJ9); assay: as §1
[10] = target: Neuropilin-1 (Rattus norvegicus) (UniProt Q9QWJ9); assay: Inhibition of (bt)-VEGF165 binding to purified recombinant rat NRP1/Fc chimera measured after overnight incubation by ELISA method relative to A7R
[11] = system: HUVEC; assay: Toxicity against HUVEC assessed as reduction in cell viability at 200 to 1000 uM incubated for 24 hrs by MTS assay; format: cell-based; settings: human
[12] = system: HUVEC; assay: Toxicity against HUVEC assessed as reduction in cell viability at 200 to 1000 uM incubated for 96 hrs by MTS assay; format: cell-based; settings: human
[13] = system: MDA-MB-231; assay: Toxicity against human MDA-MB-231 assessed as reduction in cell viability at 200 to 1000 uM incubated for 24 hrs by MTS assay; format: cell-based; settings: mda-mb-231, 24 h
[14] = system: MDA-MB-231; assay: Toxicity against human MDA-MB-231 assessed as reduction in cell viability at 200 to 1000 uM incubated for 96 hrs by MTS assay; format: cell-based; settings: mda-mb-231, 96 h

inhibition [1]	inhibition [2]	inhibition [3]	inhibition [4]	inhibition [5]	inhibition [6]	inhibition [7]	inhibition [8]	IC50 [9]	Ratio IC50 [10]	Compound	Activity [11]	Activity [12]	Activity [13]	Activity [14]
100%	94.7%	86.7%	76.5%	61.7%	35.5%	3.1%	Dose-dependent effect	0.18 µM	< 30	N=C(N)NCCC[C@H](NC(=O)[C@@H]1CCC(=O)NCCCC[C@H](N)C(=O)N2CCC[C@H]2C(=O)N1)C(=O)O (H-KPER-OH; lactam 1-3)	Non-toxic	Non-toxic	Non-toxic	Non-toxic
–	61%	38.1%	24.4%	14.6%	2.9%	inactive	–	5.86 µM	–	H-ATWLPPR-OH	–	–	–	–
